{
  "source": "patent EP2902035B1",
  "about": "“Cell-permeable peptide inhibitors of the JNK signal transduction pathway for use in the treatment of inflammatory eye diseases” (Xigen Inflammation Ltd., priority 2010, dated 2012)",
  "key": {"[1]": {"tested_on": "chemokines/ cytokines in the serum", "assay": "Chemokine/Cytokine Multiplex Assay on serum in EIU", "format": "in vivo, Lewis rats", "conditions": "tendency, not statistically significant", "protocol": "(§1) Aqueous humor and vitreous were collected and pooled from each enucleated eye. Ocular fluids were immediately centrifuged and the cell-free fractions were collected and frozen at -20°C before analysis by Multiplex assay. Blood samples were first clotted at room temperature for 2 hours and then at 4°C overnight. Serum was collected, centrifuged and the clear supernatant was collected and frozen at -20°C before Multiplex analysis.\n(§2) In a first set of experiment, 70 rats were randomized into 14 experimental groups with 5 rats per group. Uveitis was induced in each group and rats were killed 6 hours (4 groups), 24 hours (6 groups) and 48 hours (4 groups) after LPS challenge. For each time point tested (i.e. 6h, 24h and 48h), rats treated by intravenous or intravitreous injections of vehicle (NaCl 0.9%) or the JNK-inhibitor (poly-)peptide of SEQ ID NO: 11 were compared to untreated control uveitic rats. Two additional groups, treated by intravenous injection of vehicle and intravitreal injection of dexamethasone were used at 24 hours. Clinical ocular inflammation was recorded only at 24 hours (see Scoring of Endotoxin-Induced Uveitis (EIU) section). At each time point, intraocular fluids from each eye (n=10 per group) and serum from each animal (n=5 per group) were used for Chemokine/Cytokine Multiplex Assay.\nIntraocular fluids (diluted to obtain a final volume of 25 µL) and sera (25 µL of 1:5 dilution) were subjected to multiplex bead analysis. This method uses microspheres as the solid support for immunoassays 12 and allows the titration of a greater number of cytokines with increased sensitivity than occurs with ELISA.13 For each sample, seventeen analytes were quantified simultaneously using the rat Cytokine/Chemokine-17plex kit (Milliplex Map Kit, Millipore, Saint-Quentin-en-Yvelines, France) according to the manufacturer's instructions: Chemokines MCP-1/CCL2, MIP-1α/CCL3, RANTES/CCL5, IP-10/CXCL10 (IFN-inducible protein-10) and GRO/KC; proinflammatory mediators IL-1, IL-18 and TNF-; Th1/Th2/Th17 cytokines IL-2 and IFN- / IL-4, IL-5, IL-6, IL-10 and IL-13 / IL-17. […]"}, "[2]": {"tested_on": "ED1 positive cells", "assay": "Quantification of infiltrating ED1 positive cells on histological sections in EIU", "format": "in vivo, Lewis rats", "conditions": "24 hours after LPS challenge, mean ± SEM", "protocol": "(§3) For immunohistochemistry, eyeballs were collected and fixed for 1h at room temperature in phosphate buffered saline (PBS) containing 4% paraformaldehyde before being rinsed overnight in PBS. The next day, samples were embedded and frozen in optimal cutting-temperature (OCT) compound (Tissue-Tek®, Sakura Finetek, Zoeterwoude, Netherland) and stored at -80°C. Frozen antero-posterior sections of eyes (10 µm thick) were performed at the optic nerve level using a cryostat (Leica CM 3050S, Rueil-Malmaison, France) and mounted on super-frost slides for immunohistochemical analysis.\n(§4) A second set of experiment was designed to evaluate the anti-inflammatory effect of the JNK-inhibitor (poly-)peptide of SEQ ID NO: 11 at the cellular and tissue level as well as the biodistribution of this molecule 24 hours after administration. Rats were randomized into 11 experimental groups. 6 groups of rats with uveitis: untreated uveitic rats, rats injected intravenously with NaCl or the JNK-inhibitor (poly-)peptide of SEQ ID NO: 11 and rats injected intravitreously with the vehicle, the JNK-inhibitor (poly-)peptide of SEQ ID NO: 11 or dexamethasone. The 5 additional groups without uveitis were: untreated healthy rats, rats treated by NaCl IV or the JNK-inhibitor (poly-)peptide of SEQ ID NO: 11 IV and rats injected IVT with NaCl or the JNK-inhibitor (poly-)peptide of SEQ ID NO: 11. Three eyes from separate rats were collected per group and used for immunohistochemistry.\nTo characterize the cellular infiltrate, sections were double-stained with ED1 and iNOS. […] After staining nuclei with DAPI (Sigma-Aldrich, Saint-Quentin Fallavier, France), sections were mounted in PBS/Glycerol (1/1) and observed by fluorescence photomicroscopy (FXA, Microphot, Nikon, Melville, USA). […] ED1 positive cells and polymorphonuclear cells, identified by the shape of their nuclei stained with DAPI, were quantified on histological sections. […] Results were expressed as mean ± standard error of the mean (SEM)."}, "[3]": {"tested_on": "intraocular LPS-induced Chemokine/Cytokine profiles", "assay": "Chemokine/Cytokine Multiplex Assay on ocular fluids in EIU", "format": "in vivo, Lewis rats", "protocol": "as §1, §2\nIntraocular fluids (diluted to obtain a final volume of 25 µL) and sera (25 µL of 1:5 dilution) were subjected to multiplex bead analysis. This method uses microspheres as the solid support for immunoassays 12 and allows the titration of a greater number of cytokines with increased sensitivity than occurs with ELISA.13 For each sample, seventeen analytes were quantified simultaneously using the rat Cytokine/Chemokine-17plex kit (Milliplex Map Kit, Millipore, Saint-Quentin-en-Yvelines, France) according to the manufacturer's instructions: Chemokines MCP-1/CCL2, MIP-1α/CCL3, RANTES/CCL5, IP-10/CXCL10 (IFN-inducible protein-10) and GRO/KC; proinflammatory mediators IL-1, IL-18 and TNF-; Th1/Th2/Th17 cytokines IL-2 and IFN- / IL-4, IL-5, IL-6, IL-10 and IL-13 / IL-17. The assay was performed in a 96-well filter plate and standard curves for each cytokine were generated with a Rat Cytokine Standard provided in the kit. All incubation steps were performed under medium orbital agitation and in the dark to protect the beads from light. Data acquisition and analysis were performed with the manager software version 4.1 (Bioplex; Bio-Rad) with four or five logistic parameters for standard curves. Detection thresholds for all the analytes were estimated around 1 to 10 pg/mL."}, "[4]": {"tested_on": "healthy eyes", "parameters": "species or system Lewis rats", "conditions": "rat, in vivo", "protocol": "as §3\nas §4, with “Three eyes from separate rats were collected per group and used for immunohistochemistry.” left out"}, "[5]": {"conditions": "ocular fluids, IV at the time of LPS challenge, at 6 and 24 hours"}, "[6]": {"conditions": "ocular fluids, IV, at different time points"}, "[7]": {"conditions": "ocular fluids, IVT, at 24 hours"}, "[8]": {"conditions": "treated versus untreated eyes, any of the tested time points"}},
  "data": [
    {"molecule": "CC(C)C[C@@H](NC(=O)[C@@H](Cc1ccccc1)NC(=O)[C@H]1CCCN1C(=O)[C@@H](CCC(N)=O)NC(=O)[C@H](NC(=O)[C@H]1CCCN1C(=O)[C@@H](CCCNC(=N)N)NC(=O)[C@@H](CO)NC(=O)[C@@H](CCC(N)=O)NC(=O)[C@H](N)CC(=O)O)C(C)C)C(=O)N[C@H](CC(N)=O)C(=O)N[C@H](CC(C)C)C(=O)N[C@@H](C(=O)N[C@@H](C(=O)N1CCC[C@@H]1C(=O)N[C@H](CCCNC(=N)N)C(=O)N[C@H](CCCCN)C(=O)N1CCC[C@@H]1C(=O)N[C@H](CCCNC(=N)N)C(=O)N1CCC[C@@H]1C(=O)N1CCC[C@@H]1C(=O)N[C@H](CCCNC(=N)N)C(=O)N[C@H](CCCNC(=N)N)C(=O)N[C@H](CCCNC(=N)N)C(=O)N[C@H](CCC(N)=O)C(=O)N[C@H](CCCNC(=N)N)C(=O)N[C@H](CCCNC(=N)N)C(=O)N[C@H](CCCCN)C(=O)N[C@H](CCCCN)C(=O)N[C@H](CCCNC(=N)N)C(=O)NCC(=O)O)[C@H](C)O)[C@H](C)O", "note": "[SEQ ID NO: 11]", "values": [
      {"measurement": "IL-2", "setting": "[1]; after IV administration", "result": "reduction"},
      {"measurement": "MIP-1α", "setting": "[1]; after IV administration", "result": "reduction"},
      {"measurement": "IL-2", "setting": "[1]; after IVT", "result": "reduction"},
      {"measurement": "number of ED1 positive cells", "setting": "[2]; IV injection (20 µg/kg)", "result": "137 ± 7"},
      {"measurement": "number of ED1 positive infiltrating cells", "setting": "[2]; IVT injection (SEQ ID NO: 11: 0.2 µg/injection)", "result": "93 ± 8"},
      {"measurement": "MCP-1", "setting": "[3]; [5]", "result": "significant reduction"},
      {"measurement": "MIP-1α", "setting": "[3]; [5]", "result": "significant reduction"},
      {"measurement": "RANTES", "setting": "[3]; [5]", "result": "significant reduction"},
      {"measurement": "GRO/KC", "setting": "[3]; ocular fluids, IV, at 6 hours", "result": "significantly reduced"},
      {"measurement": "IL-10", "setting": "[3]; ocular fluids, IV, at 6 hours, not significantly", "result": "tended to increase"},
      {"measurement": "IL-6", "setting": "[3]; [6]", "result": "significantly reduced"},
      {"measurement": "INF-γ", "setting": "[3]; [6]", "result": "significantly reduced"},
      {"measurement": "TNF-α", "setting": "[3]; [6]", "result": "significantly reduced"},
      {"measurement": "IL-2", "setting": "[3]; ocular fluids, IVT, at 6 hours", "result": "trend to a decrease"},
      {"measurement": "IL-6", "setting": "[3]; ocular fluids, IVT, at 6 hours", "result": "trend to a decrease"},
      {"measurement": "MCP-1", "setting": "[3]; ocular fluids, IVT, at 6 hours", "result": "trend to a decrease"},
      {"measurement": "TNF-α", "setting": "[3]; ocular fluids, IVT, at 6 hours", "result": "trend to a decrease"},
      {"measurement": "IL-2", "setting": "[3]; [7]", "result": "marked decrease"},
      {"measurement": "IL-13", "setting": "[3]; [7]", "result": "increase"},
      {"measurement": "chemokine/ cytokine profiles", "setting": "[3]; ocular fluids, injected into the vitreous at the time of LPS challenge, versus vehicle", "result": "not strikingly different"},
      {"measurement": "IL-1β", "setting": "[3]; [8]", "result": "did not differ"},
      {"measurement": "IL-4", "setting": "[3]; [8]", "result": "did not differ"},
      {"measurement": "IL-18", "setting": "[3]; [8]", "result": "did not differ"},
      {"measurement": "inflammatory cell infiltration in healthy eyes", "setting": "[4]", "result": "No inflammatory cell infiltration"}
    ]}
  ]
}
